Measurements taken from US8552176B2 (priority 2010, dated 2013).

What was measured:
Experiment in all cases: cells
Type in all cases: cell-based, human
[1] = tested on: HCT-15; conditions: read-out: GI50 HCT-15 colorectal
[2] = tested on: Hep3b; conditions: read-out: GI50 Hep3b liver
[3] = tested on: A549; conditions: read-out: GI50 A549 lung (+p53)
[4] = tested on: SF-268; conditions: read-out: GI50 SF-268 CNS
[5] = tested on: MCF7; conditions: read-out: GI50 MCF7 breast
[6] = tested on: H1299; conditions: read-out: GI50 H1299 lung (−p53)
[7] = tested on: SKOV3; conditions: read-out: GI50 SKOV3 ovary
[8] = tested on: HT29; conditions: read-out: GI50 HT29 colorectal
[9] = tested on: NCI-H460; conditions: read-out: GI50 NCI-H460 lung
[10] = tested on: DU-145; conditions: read-out: GI50 DU-145 prostate

| Structure (SMILES) | GI50 [1] [µM] | GI50 [2] [µM] | GI50 [3] [µM] | GI50 [4] [µM] | GI50 [5] [µM] | GI50 [6] [µM] | GI50 [7] [µM] | GI50 [8] [µM] | GI50 [9] [µM] | GI50 [10] [µM] |
| --- | --- | --- | --- | --- | --- | --- | --- | --- | --- | --- |
| CON(CCCCc1ccc(N(CCCl)CCCl)cc1)C1OC(CO)C(O)C(O)C1O (mixture of isomers) [Compound 10] | 0.97 ± 0.07 | 4.4 ± 0.3 | 3.4 | 3.1 ± 0.1 | 9.3 ± 0.7 | 0.53 ± 0.05 | 3 ± 0.1 | 0.6 ± 0.9 | 9.5 ± 0.7 | 5.8 ± 0.1 |
| CON(CCCCc1ccc(N(CCCl)CCCl)cc1)C1OC(CO)C(O)C(O)C1O (mixture of isomers) [Compound 11] | 1.7 ± 0.1 | 2.5 ± 0.1 | 3.5 ± 0.2 | 3.2 ± 0.1 | 9 ± 0.7 | 1.3 ± 0.1 | 3.1 ± 0.1 | 2.2 ± 0.1 | 10.4 ± 0.8 | 6 ± 0.1 |
| CON(CCCCc1ccc(N(CCCl)CCCl)cc1)C1OC(CO)C(O)C(O)C1O (mixture of isomers) [Compound 12] | 1.4 ± 0.1 | 1.7 ± 0.1 | 2.4 ± 0.1 | 1.9 ± 0.1 | 6.5 ± 0.1 | 0.91 ± 0.05 | 1.9 ± 0.1 | 1.6 ± 0.2 | 6.6 ± 0.4 | 4.1 ± 0.2 |
| CON(CCCCc1ccc(N(CCCl)CCCl)cc1)C1OC(CO)C(O)C(O)C1O (mixture of isomers) [Compound 13] | 1.4 ± 0.1 | 2 ± 0.1 | 3.1 ± 0.2 | 2.3 ± 0.1 | 7.9 ± 0.8 | 1.3 ± 0.1 | 2.5 ± 0.1 | 2.1 ± 0.2 | 7.9 ± 0.5 | 4.1 ± 0.1 |
| CON(CCCCc1ccc(N(CCCl)CCCl)cc1)C1OCC(O)C(O)C1O (mixture of isomers) [Compound 14] | 0.9 ± 0.04 | 1.6 ± 0.1 | 2 ± 0.1 | 1.8 ± 0.1 | 4.6 ± 0.1 | 0.73 ± 0.03 | 2 ± 0.1 | 1.5 ± 0.2 | 5 ± 0.4 | 3.3 ± 0.1 |
| CON(CCCCc1ccc(N(CCCl)CCCl)cc1)C1OCC(O)C(O)C1O (mixture of isomers) [Compound 15] | 1 ± 0.05 | 1.9 ± 0.1 | 2.3 ± 0.2 | 1.9 ± 0.1 | 5.4 ± 0.1 | 0.84 ± 0.04 | 2.2 ± 0.1 | 1.9 ± 0.1 | 6.1 ± 0.5 | 3.6 ± 0.1 |
| CON(CCCCc1ccc(N(CCCl)CCCl)cc1)C1OC(CO)C(OC2OC(CO)C(O)C(O)C2O)C(O)C1O (mixture of isomers) [Compound 17] | 2.3 ± 0.1 | 1.2 ± 0.1 | 1.6 ± 0.1 | 1.5 ± 0.1 | 1.7 ± 0.1 | 1.8 ± 0.1 | 1.8 ± 0.1 | 1.9 ± 0.1 | 3.8 ± 0.3 | 1.8 ± 0.1 |
| CON(CCCCc1ccc(N(CCCl)CCCl)cc1)C1CC(O)C(O)C(C)O1 (mixture of isomers) [Compound 18] | 1.3 ± 0.1 | 3.2 ± 0.1 | 2.7 ± 0.2 | 2.8 ± 0.1 | 6.3 ± 0.1 | 1.1 ± 0.1 | 3 ± 0.1 | 2.1 ± 0.09 | 6.5 ± 0.4 | 4.3 ± 0.1 |
| CON(CCCCc1ccc(N(CCCl)CCCl)cc1)C1OC(C)C(O)C(O)C1O (mixture of isomers) [Compound 20] | 0.82 ± 0.07 | 2.6 ± 0.2 | 9.6 ± 0.4 | 1.7 ± 0.1 | 3 ± 0.2 | 3.5 ± 0.2 | 1.7 ± 0.1 | 6.7 ± 0.3 | 5.9 ± 0.3 | 4.1 ± 0.9 |
| CON(CCCCc1ccc(N(CCCl)CCCl)cc1)C1OC(C)C(O)C(O)C1O (mixture of isomers) [Compound 21] | 1.4 ± 0.1 | 3 ± 0.1 | 2.2 ± 0.1 | 2 ± 0.1 | 0.78 ± 0.09 | 1.2 ± 0.1 | 1.8 ± 0.1 | 2.3 ± 0.1 | 5.4 ± 0.3 | 3.8 ± 0.1 |
| CON(CCCCc1ccc(N(CCCl)CCCl)cc1)C1OC(C)C(OCc2ccccc2)C(OCc2ccccc2)C1OCc1ccccc1 (mixture of isomers) [Compound 22] | 4.6 ± 0.2 | 9.5 ± 0.4 | 6.4 ± 0.2 | 5.7 ± 0.2 | 4 ± 1 | 3.3 ± 0.2 | 7.2 ± 0.4 | 7.5 ± 0.3 | 15.8 ± 0.7 | 10 ± 0.4 |
| CON(CCCCc1ccc(N(CCCl)CCCl)cc1)C1OC(CO)C(O)C(O)C1O (mixture of isomers) [Compound 23] | 2.4 ± 0.1 | 3.6 ± 0.3 | 4.4 ± 0.4 | 1.9 ± 0.5 | 1.3 ± 0.2 | 1.3 ± 0.1 | 3.4 ± 0.5 | 3.3 ± 0.4 | 9.7 ± 0.8 | 5.6 ± 0.3 |
| CON(CCCCc1ccc(N(CCCl)CCCl)cc1)C1OC(CO)C(O)C(O)C1O (mixture of isomers) [Compound 24] | 2.3 ± 0.3 | 3.8 ± 0.3 | 4.8 ± 0.4 | 2 ± 0.4 | 1.3 ± 0.1 | 1.4 ± 0.1 | 4.1 ± 0.6 | 3.7 ± 0.5 | 10.4 ± 0.7 | 5.5 ± 0.2 |
| CON(CCCCc1ccc(N(CCCl)CCCl)cc1)C1CC(O)C(O)C(CO)O1 (mixture of isomers) [Compound 25] | 1.6 ± 0.1 | 3.3 ± 0.1 | 3.2 ± 0.2 | 2.2 ± 0.1 | 1.04 ± 0.08 | 1.5 ± 0.1 | 2.4 ± 0.1 | 3.5 ± 0.7 | 6.6 ± 0.4 | 5 ± 0.7 |
| CON(CCCCc1ccc(N(CCCl)CCCl)cc1)C1OC(C(=O)O)C(O)C(O)C1O (mixture of isomers) [Compound 26] | 8.1 ± 0.6 | 14.7 ± 0.8 | 17.1 ± 0.8 | 8.9 ± 0.4 | 4.5 ± 0.5 | 4.9 ± 0.7 | 12.8 ± 0.5 | 14.9 ± 0.1 | 34 ± 2 | 16.3 ± 0.5 |
| CON(CCCCc1ccc(N(CCCl)CCCl)cc1)C1OC(CO)C(O)C(O)C1NC(C)=O (mixture of isomers) [Compound 27] | 19.1 ± 0.8 | 11.8 ± 0.4 | 22 ± 1 | 4.2 ± 0.4 | 4.4 ± 0.6 | 3.8 ± 0.4 | 11 ± 1 | 12 ± 1 | 42 ± 3 | 16.7 ± 0.7 |
| CON(CCCCc1ccc(N(CCCl)CCCl)cc1)C1OC(CN)C(O)C(O)C1O (mixture of isomers) [Compound 34] | 1.3 ± 0.1 | 3.5 ± 0.2 | 3.7 ± 0.2 | 2.2 ± 0.1 | 3.7 ± 0.4 | 1.1 ± 0.1 | 2.2 ± 0.1 | 2.5 ± 0.1 | 5 ± 0.4 | 2.8 ± 0.1 |
| CON(CCCCc1ccc(N(CCCl)CCCl)cc1)C1OC(CO)C(O)C(O)C1O (mixture of isomers) [Compound 40] | 0.88 ± 0.07 | 3.9 ± 0.2 | 3.3 ± 0.2 | 2 ± 0.1 | 3.2 ± 0.3 | 0.55 ± 0.05 | 2.5 ± 0.1 | 2.9 ± 0.1 | 8 ± 0.7 | 4.8 ± 0.1 |
| CON(CCCCc1ccc(N(CCCl)CCCl)cc1)C1OC(C)C(O)C(O)C1O (stereo not drawn) [Compound 37] | 1.1 ± 0.1 | 4.4 ± 0.3 | 4.6 ± 0.2 | 2.9 ± 0.1 | 5.8 ± 0.1 | 1.8 ± 0.1 |  | 2.2 ± 0.2 | 8.5 ± 0.8 | 4.9 ± 0.1 |
